The values that follow are results of earlier work, collected in patent US20220370561A1, “LITHIUM AS A MONOTHERAPY AND/OR STEM CELL ADJUVANT THERAPY FOR PULMONARY FIBROSIS” (Therapeutic Solutions International, Inc., priority 2021, published 2022).

Read-outs that look alike come from different tables or passages of the source.

The conditions of data set [1]: danazol orally 800 mg per day.
The test system of a further data set is p16/p21 pathway. The note with it: in vitro pre-mature senescence model.
Another data set concerns mesenchymal stem cells. The conditions noted are these: culture of cells with valproic acid.
[2] abbreviates: 12 months, exploratory analysis.

Turning to `C#C[C@]1(O)CC[C@H]2[C@@H]3CCC4=Cc5oncc5C[C@]4(C)[C@H]3CC[C@@]21C` [danazol], the “mean increase in telomere length” value in the data set with telomere length (6 months, exploratory analysis) is on record as 175 bp; in the data set on telomere length (setting [2]), 360 bp; in the data set with telomere length (24 months compared with baseline), 386 bp. Further, the “patients with increase in telomere length” value was 16 of 21 in the data set on telomere length (6 months, exploratory analysis) and 16 of 18 with telomere length (setting [2]). In addition, the “patients with a gain in telomere length compared with baseline” value in the data set with telomere length (24 months, 11 of 12) is listed as 92%. Further, the “telomere attrition in patients evaluable for the primary end point” value in the data set with telomere length (danazol orally 800 mg per day, 24 months) is listed as “reduced in all 12 patients”. Further, in the data set with telomere length (danazol orally 800 mg per day, 24 months, 12 of 27 patients), the “patients meeting the primary efficacy end point (20% reduction in annual rate of telomere attrition), intention-to-treat” value is 44%. For the same compound, in data set [1], the “elevated liver-enzyme levels of grade 2 or less, patients” value is 41%. Moreover, the “muscle cramps of grade 2 or less, patients” value in data set [1] is listed as 33%. The hematologic responses by setting is: (3 months, 19 of 24 evaluable patients) 79%; (24 months, 10 of 12 evaluable patients) 83%.
As for `CCCC(CCC)C(=O)O` [valproic acid], in the data set with p16/p21 pathway, the “G2/M phase blockage derived from the senescence stress” value is on record as “inhibited the G2/M phase blockage” and the cell proliferation entry was “increased cell proliferation”. Besides, the apoptosis result in the data set on p16/p21 pathway (through suppression of the p16/p21 pathway) is recorded as “inhibited apoptosis”. For the same compound, the “immune regulatory and metabolic properties of mesenchymal stem cells” value in the data set with mesenchymal stem cells is recorded as “enhanced”.
